{"source": "patent US8263649B2", "about": "“Benzofuran type derivatives, a composition comprising the same for treating or preventing cognitive dysfunction and the use thereof” (Medifron DBT Co., Ltd., priority 2006, dated 2012)", "key": {"[1]": {"tested_on": "A 40", "test": "ELISA of beta-amyloid in brain of transgenic mice (A 40)", "type": "in vivo, mouse", "details": "APPswe mice treated for 4 months; no significance statistically; FIG. 13", "experimental": "(§1) 13 months old dementia model male mice expressing APPswe was used in the experiment and the mice was divided into two groups, i.e., control group consisting of 2 mice and test groups consisting of 4 mice. Each mouse had been fed with the feed mixed with 3 mg of compound IIb everyday for 4 months.\n(§2) At the end of behavior test, the brain of mouse was delivered and the left hemisphere was frozen to be used as a cryo-section material. The remaining right hemisphere was used to measure the formation of beta-amyloid according to the procedure disclosed in the literature (J. Neurosci, 21(12), pp 4183-4187, 2001). […]\n(§3) The amount of beta-amyloid in the brains of mice was determined by […] ELISA method according to the manual provided from Biosource Co and ELISA kit (KHB 3482, Biosource Co.) was used in the experiment. […] The level of color reaction was determined at 450 nm using by spectrophotometer and the absolute amount of beta-amyloid in the samples was transformed by comparing with standard value. The brain of the mice treated with the compound 18b for 4 months was delivered and the amount of beta-amyloid in supernatant obtained from the dissolved brain tissue was determined according to ELISA method."}, "[2]": {"biological_target": "T1, aggregated beta amyloid Ab(1-42) (Homo sapiens, UniProt P05067)", "T1 construct": "Synthetic beta amyloid, Ab(1-42) [Bachem Cat. No. H1368; H-Asp-Ala-Glu- Phe-Arg-His-Asp-Ser-Gly-Tyr; purchased Bachem H1368; host or cells: synthetic peptide", "T1 sequence (P05067 672-713)": "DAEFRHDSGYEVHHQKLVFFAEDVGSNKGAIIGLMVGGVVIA", "test": "Inhibition test of beta amyloid aggregation lysis (Thioflavin T fluorescence)", "type": "biochemical", "details": "FIG. 1", "experimental": "Synthetic beta amyloid, Ab(1-42) [Bachem Cat. No. H1368; H-Asp-Ala-Glu- Phe-Arg-His-Asp-Ser-Gly-Tyr-Glu-Val-His-His-Gln-Lys-Leu-Val-Phe-Phe-Ala-Glu- Asp-Val-Gly-Ser-Asn-Lys-Gly-Ala-Ile-Ile-Gly-Leu-Met-Val-Gly-Gly-Val-Val-Ile- Ala-OH]) was dissolved in DMSO in order that it induces aggregation at the concentration of 25 microM for 1 week. The test group added with aggregated betaamyloid and test samples inhibiting the inhibition of aggregation and a control group added with only A were reacted together at room temperature for 1 hour on fluorescent black plate. ThT (Thioflavin T) was diluted with 50 mM glycine buffer solution to be […] and the diluted solutions were added to each well by 150 μl/well. The fluorescence intensity of each group was determined by microplate reader (SAFIRE, TECAN) at 450 nm excitation wavelength/480 nm emission wavelength after shaking together for 10 seconds."}, "[3]": {"tested_on": "A 42", "test": "ELISA of beta-amyloid in brain of transgenic mice (A 42)", "type": "in vivo, mouse", "details": "APPswe mice treated for 4 months", "experimental": "as §1, §2, §3"}, "[4]": {"tested_on": "ICR mouse administrated aggregated beta amyloid 1-42", "test": "AD acute model experiment - passive avoidance test", "type": "in vivo", "experimental": "For passive avoidance test, male ICR mouse weighing 25 g purchased from Samtaco Co. was bred with five mice per cage and the cage was kept with following condition maintaining the temperature of 22±2° C. and the relative humidity of […] under the regularly controlled light/dark condition with an interval of 12 hours.\nSynthetic beta amyloid 1-42 (BACHEM) was dissolved in DMSO in order to be 250 μm solution and diluted with PBS to […] and aggregated at 37° C. for four days (Passive Avoidance test) or six days (Y maze test).\nAggregated beta amyloid 1-42 was administrated into the mice according to the procedure disclosed in the literature (Lausen & Belknap, J. Pharmacol. Methods, 16 pp 355-357, 1986).\n[…] beta amyloid 1-42 was administrated into the 2.4 mm depth of bregma region with 50 μl of Hamilton micro-syringe equipped with 26-gauge needle. The behavior tests were divided into Y maze test and PA (passive avoidance) test after the beta amyloid administration. […]\nDuring the first acquisition trial, each mouse was placed in the lighted compartment; as soon as they entered the dark compartment, the door was closed, and they received an electric shock through the grid floor (0.6 Ma, 3 s). […] 24 hours after the training trial, the mice were again placed in the lighted compartment and the time until they re-entered the dark compartment was measured (step-through latency). […]"}}, "data": [{"compound": "COCCCc1ccc2oc(-c3ccc(OC)c(OC)c3)cc2c1", "note": "[Compound 18b, 2-(3,4-dimethoxy-phenyl)-5-(3-methoxy-propyl)-benzofuran]", "values": [{"measurement": "amount of A 40 in brain (ELISA)", "setting": "[1]", "result": "slightly reduced"}, {"measurement": "solubilizing activity of beta-amyloid", "setting": "[2]", "result": "potent solubilizing activity"}, {"measurement": "change of the amount of A 42 in brain (ELISA)", "setting": "[3]", "result": "no difference"}, {"measurement": "recovering effect on memory learning damaged by beta-amyloid (passive avoidance, step-through latency)", "setting": "[4]; mice, oral, three days, FIG. 4", "result": "potent recovering effect"}, {"measurement": "effect on the memory learning capacity (passive avoidance), best dose group", "setting": "[4]; treatment group with more than 100 mg/kg, FIG. 5", "result": "most excellent effect"}]}]}
